The test system of test [1] is store-operated calcium entry (SOCE) in HT-22 cells. The test is described as follows: SOCE Ca2+ imaging in Fluo3-loaded HT-22 cells (Tg-induced store release, then Ca2+ entry). As to conditions: control HT-22 cells. The test is classed as cell-based, mouse. As to the method:
(§1) Cytosolic Ca^2+ imaging was assessed in the HT-22 cell culture with the fluorescent probe Fluo3-AM. […] The untread cells were regarded as the controls. […] Then, the cells were washed once with 1 mL of MLocke’s K5 buffer, and the 35 mm culture dishes were placed in the thermostatic plate at 37 °C (Warner Instrument Co., Hamden, CT, USA) of the Nikon Diaphot 300 inverted epifluorescence microscope (Tokyo, Japan) with an NCF Plan ELWD 40× objective (the pixel size of the images shown in this work was 0.2 μm). The images of the Fluo3-loaded cells were acquired with the Hamamatsu Orca-R^2 CCD camera (binning mode 2 × 2) with an excitation filter of 470 nm, a dichroic mirror of 510 nm with an emission filter of 520 nm, and a 0.3 s exposure time. […] The depletion of the Ca^2+ stores was triggered by adding 2 μM of the SERCA pump blocker Tg plus ethylene glycol tetraacetic acid (1 mM), in a Ca^2+-free Mlocke’s K5 buffer. Then, the SOCE was measured after the addition of 3 mM of CaCl2 to the Tg-containing medium. […] The activity of the RyR Ca^2+-leak channels was evaluated by incubation with 100 μM of the RyR antagonist ryanodine for 1 h in the HT-22 culture media. In all experiments with antagonists, we performed the respective dimethylsulfoxide vehicle controls.

A further test deals with HT22 cells. The test is described as follows: Intracellular calcium response of Fluo3-loaded HT22 cells to cholinergic agonists. Format: cell-based, mouse. As to conditions: for intracellular calcium response in the majority of the cells: Fluo3-loaded HT22 cells. On the procedure: as §1
Supplementary Figure S8. Representative kinetic traces of the average fluorescence intensity of Fluo3-loaded
HT22 cells (Ft/F0) recorded over time every 15 s intervals
Ca2+ entry mediated by cholinergic receptors. The data shown are the means ±SEM of n =16 cells.
(1 picture or pasted object on this page, not shown here)

In a further test the target is T1, RyR (Mus musculus, UniProt E9Q401).
T1 construct: incubation with 100 μM of the RyR antagonist ryanodine for 1 h in the HT-22 culture media; endogenous in cells; host or cells: HT-22 (mouse hippocampal cell line)
The experiment in a line: Tg-induced Ca2+ release from stores in Fluo3-loaded HT-22 cells with the RyR antagonist ryanodine. The test is classed as cell-based. The conditions noted are these: 100 μM ryanodine, 1 h, 37 °C, control HT-22 cells; 2 μM Tg. As to the method:
as §1

A further test concerns HT-22 cells. The test is described as follows: Mitochondrial membrane potential, TMRE assay. Format: cell-based, mouse. As to conditions: 5 μM FCCP, TMRE-loaded HT-22 cells. On the procedure:
Mitochondrial depolarization was monitored with the fluorescent dye TMRE, as previously described, with small changes. […] Then, the HT-22 culture dishes were placed in the thermostatic plate at 37 °C of the inverted epifluorescence microscope and the fluorescence kinetic was recorded at 556 nm excitation filter and a dichroic mirror of 580 nm with an emission filter of 590 nm and a time of exposure 0.01 s. To assess the level of the mitochondrial membrane depolarization, 5 μM of a potent mitochondrial oxidative phosphorylation uncoupler FCCP was added to the medium. The region of interest (ROI) tool of the HCImage software was used for the quantitative analysis. The average fluorescence intensity readings per pixel in the HT-22 cells were taken from several fields for a total number of 80 cells.

The values that follow come from PMC9604325 (International Journal of Molecular Sciences, 2022).

T1 sequence (E9Q401 whole entry): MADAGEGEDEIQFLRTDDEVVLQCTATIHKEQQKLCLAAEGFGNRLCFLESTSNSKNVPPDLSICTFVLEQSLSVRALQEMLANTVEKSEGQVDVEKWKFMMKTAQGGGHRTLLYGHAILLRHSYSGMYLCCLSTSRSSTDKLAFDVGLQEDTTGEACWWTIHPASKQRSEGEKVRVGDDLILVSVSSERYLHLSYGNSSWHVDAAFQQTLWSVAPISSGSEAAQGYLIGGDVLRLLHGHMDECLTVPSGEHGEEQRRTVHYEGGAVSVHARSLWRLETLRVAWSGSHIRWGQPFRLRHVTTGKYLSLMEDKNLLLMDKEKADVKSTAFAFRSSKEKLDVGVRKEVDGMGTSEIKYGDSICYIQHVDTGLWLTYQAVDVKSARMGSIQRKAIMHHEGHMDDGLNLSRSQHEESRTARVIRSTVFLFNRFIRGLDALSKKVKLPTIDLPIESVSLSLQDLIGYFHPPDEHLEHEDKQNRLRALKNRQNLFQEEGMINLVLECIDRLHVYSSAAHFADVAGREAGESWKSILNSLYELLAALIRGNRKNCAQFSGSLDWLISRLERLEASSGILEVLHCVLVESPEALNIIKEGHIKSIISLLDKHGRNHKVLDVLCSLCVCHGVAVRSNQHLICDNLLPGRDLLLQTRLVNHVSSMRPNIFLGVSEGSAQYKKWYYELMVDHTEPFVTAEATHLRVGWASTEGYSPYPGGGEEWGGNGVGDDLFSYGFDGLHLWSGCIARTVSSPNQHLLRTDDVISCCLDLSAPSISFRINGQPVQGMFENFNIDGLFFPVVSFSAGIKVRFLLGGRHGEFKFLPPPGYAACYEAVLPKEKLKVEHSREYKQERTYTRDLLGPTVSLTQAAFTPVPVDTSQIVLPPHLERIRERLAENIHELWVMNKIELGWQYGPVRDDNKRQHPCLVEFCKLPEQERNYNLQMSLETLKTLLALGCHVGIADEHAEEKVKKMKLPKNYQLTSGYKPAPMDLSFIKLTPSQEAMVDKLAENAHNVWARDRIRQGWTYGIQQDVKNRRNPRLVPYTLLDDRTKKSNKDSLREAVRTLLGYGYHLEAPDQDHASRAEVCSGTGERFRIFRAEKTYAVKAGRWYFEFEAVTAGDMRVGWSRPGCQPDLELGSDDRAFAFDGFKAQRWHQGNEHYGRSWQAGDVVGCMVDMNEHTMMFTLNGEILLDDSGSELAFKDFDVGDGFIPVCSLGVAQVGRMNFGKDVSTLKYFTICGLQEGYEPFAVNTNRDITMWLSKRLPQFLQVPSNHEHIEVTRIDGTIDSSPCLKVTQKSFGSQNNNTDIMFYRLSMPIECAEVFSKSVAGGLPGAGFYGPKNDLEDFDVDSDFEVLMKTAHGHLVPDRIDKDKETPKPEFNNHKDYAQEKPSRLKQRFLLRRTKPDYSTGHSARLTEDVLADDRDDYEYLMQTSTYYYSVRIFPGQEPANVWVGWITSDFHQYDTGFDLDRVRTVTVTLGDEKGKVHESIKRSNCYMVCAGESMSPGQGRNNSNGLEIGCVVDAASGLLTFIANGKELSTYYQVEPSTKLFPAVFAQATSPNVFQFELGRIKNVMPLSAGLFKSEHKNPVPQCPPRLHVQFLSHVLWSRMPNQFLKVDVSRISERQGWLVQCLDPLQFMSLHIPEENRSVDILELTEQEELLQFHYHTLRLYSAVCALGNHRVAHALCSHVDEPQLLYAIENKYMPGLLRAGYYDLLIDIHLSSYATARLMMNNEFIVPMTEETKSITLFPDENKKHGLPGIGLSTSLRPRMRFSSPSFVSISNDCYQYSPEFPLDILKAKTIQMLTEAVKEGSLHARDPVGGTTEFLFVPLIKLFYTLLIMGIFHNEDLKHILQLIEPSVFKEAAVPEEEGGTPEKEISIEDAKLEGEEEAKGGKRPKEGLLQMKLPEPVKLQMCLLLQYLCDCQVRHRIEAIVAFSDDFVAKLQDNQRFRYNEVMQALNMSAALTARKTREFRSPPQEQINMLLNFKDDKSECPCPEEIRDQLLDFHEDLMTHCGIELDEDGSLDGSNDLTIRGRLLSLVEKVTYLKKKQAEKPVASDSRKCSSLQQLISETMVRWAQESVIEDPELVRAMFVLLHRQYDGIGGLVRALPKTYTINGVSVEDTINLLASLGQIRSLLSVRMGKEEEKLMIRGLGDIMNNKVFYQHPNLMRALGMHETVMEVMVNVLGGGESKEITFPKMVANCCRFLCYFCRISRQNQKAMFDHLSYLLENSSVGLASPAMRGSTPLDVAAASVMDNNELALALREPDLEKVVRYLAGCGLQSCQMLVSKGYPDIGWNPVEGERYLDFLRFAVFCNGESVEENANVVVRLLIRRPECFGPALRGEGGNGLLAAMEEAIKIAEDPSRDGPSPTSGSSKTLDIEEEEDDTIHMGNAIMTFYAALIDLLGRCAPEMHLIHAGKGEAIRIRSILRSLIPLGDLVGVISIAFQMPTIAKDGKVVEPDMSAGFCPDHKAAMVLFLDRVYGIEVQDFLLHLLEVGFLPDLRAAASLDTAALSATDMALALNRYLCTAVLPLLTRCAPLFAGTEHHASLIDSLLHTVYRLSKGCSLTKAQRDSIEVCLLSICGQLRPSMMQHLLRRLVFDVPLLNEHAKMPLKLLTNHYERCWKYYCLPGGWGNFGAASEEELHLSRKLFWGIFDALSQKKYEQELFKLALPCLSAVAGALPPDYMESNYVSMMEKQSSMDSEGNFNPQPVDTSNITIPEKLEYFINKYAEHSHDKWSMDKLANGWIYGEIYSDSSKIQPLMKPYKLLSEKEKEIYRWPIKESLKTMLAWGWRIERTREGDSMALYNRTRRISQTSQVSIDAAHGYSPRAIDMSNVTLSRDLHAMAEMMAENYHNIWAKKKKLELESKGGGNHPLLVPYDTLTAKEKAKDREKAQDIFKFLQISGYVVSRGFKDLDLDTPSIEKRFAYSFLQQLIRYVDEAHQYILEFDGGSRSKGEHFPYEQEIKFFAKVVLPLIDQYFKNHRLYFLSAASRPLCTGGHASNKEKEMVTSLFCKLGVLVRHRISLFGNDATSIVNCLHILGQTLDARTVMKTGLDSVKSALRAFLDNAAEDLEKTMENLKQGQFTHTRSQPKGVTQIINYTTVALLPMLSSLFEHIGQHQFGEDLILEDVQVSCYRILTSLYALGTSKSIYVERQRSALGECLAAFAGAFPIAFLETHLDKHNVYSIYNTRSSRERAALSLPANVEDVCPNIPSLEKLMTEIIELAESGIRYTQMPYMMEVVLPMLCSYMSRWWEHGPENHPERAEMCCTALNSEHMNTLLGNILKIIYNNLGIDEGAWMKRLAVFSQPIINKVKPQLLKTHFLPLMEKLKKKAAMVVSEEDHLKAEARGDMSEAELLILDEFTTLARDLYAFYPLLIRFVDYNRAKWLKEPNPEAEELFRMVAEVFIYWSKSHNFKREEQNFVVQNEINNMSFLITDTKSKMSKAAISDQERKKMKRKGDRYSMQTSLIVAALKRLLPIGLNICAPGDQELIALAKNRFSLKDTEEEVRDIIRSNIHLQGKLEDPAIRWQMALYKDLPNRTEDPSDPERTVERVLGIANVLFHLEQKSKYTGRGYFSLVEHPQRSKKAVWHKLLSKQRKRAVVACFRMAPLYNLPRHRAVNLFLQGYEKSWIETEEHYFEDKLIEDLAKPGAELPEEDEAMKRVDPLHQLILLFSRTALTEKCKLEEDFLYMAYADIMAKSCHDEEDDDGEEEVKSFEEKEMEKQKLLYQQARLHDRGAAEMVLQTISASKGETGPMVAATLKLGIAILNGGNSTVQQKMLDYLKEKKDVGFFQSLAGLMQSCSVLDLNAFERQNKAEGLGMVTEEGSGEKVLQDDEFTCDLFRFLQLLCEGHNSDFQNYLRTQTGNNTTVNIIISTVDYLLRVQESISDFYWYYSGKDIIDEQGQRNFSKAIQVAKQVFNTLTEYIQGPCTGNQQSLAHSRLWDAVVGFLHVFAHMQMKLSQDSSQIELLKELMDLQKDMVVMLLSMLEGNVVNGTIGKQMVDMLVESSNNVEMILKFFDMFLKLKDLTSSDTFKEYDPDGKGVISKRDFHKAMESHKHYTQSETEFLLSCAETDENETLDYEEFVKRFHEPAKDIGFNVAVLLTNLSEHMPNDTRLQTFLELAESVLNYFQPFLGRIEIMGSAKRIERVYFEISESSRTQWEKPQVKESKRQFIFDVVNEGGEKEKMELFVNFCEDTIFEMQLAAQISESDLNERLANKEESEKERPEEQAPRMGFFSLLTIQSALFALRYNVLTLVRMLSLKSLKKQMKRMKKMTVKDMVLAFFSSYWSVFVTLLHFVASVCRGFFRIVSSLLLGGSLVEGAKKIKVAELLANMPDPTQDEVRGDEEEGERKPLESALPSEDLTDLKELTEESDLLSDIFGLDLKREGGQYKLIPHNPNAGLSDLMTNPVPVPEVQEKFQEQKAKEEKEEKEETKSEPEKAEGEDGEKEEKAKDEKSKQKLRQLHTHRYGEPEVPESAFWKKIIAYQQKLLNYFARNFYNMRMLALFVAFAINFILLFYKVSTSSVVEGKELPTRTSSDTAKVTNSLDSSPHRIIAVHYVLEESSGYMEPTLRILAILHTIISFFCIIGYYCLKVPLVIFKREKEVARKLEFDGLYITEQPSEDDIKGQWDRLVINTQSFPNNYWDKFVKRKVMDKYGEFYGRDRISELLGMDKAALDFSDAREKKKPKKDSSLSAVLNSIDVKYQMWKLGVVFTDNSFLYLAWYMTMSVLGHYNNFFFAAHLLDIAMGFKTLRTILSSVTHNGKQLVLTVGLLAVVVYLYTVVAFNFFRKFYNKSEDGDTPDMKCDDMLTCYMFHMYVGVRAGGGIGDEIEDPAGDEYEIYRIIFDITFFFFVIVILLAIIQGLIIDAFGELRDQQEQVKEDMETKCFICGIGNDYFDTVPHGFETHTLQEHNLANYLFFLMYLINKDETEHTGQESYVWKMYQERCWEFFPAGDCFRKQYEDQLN

On to `Cc1nnsc1C(=O)Nc1ccc(-n2nc(C(F)(F)F)cc2C(F)(F)F)cc1` [BTP2, N-[4-[3,5-bis(trifluoromethyl)pyrazol-1-yl]phenyl]-4-methylthiadiazole-5-carboxamide], for which, in test [1] (3 μM BTP2, 15 min), the “Ca2+ released from the stores after addition of Tg versus control” value was “no significative difference”. The “decrease of Ca2+ entry through the plasma membrane relative to control without BTP2” value in test [1] (3 μM BTP2, 15 min preincubation, 37 °C, mean ± SEM, n > 80 cells) was 71 ± 8%. For `C[N+](C)(C)CCOC(N)=O` [carbachol], the “intracellular calcium response in the majority of the cells” value in the test with HT22 cells is given as “almost negligible”. In the case of `CC(=O)OCC[N+](C)(C)C` [acetylcholine], the “fraction of HT22 cells showing intracellular calcium concentration peaks” value in the test on HT22 cells (100 μM acetylcholine, Fluo3-loaded cells) is “less than 25%”. Further, the “intracellular calcium response in the majority of the cells” value in the test with HT22 cells is “almost negligible”. For ryanodine, the “increase of ER Ca2+ content (Tg-induced Ca2+ release from stores) versus control without ryanodine” value at RyR was “about 2.2 fold”. On to `N#CC(C#N)=NNc1ccc(OC(F)(F)F)cc1` [FCCP, trifluoromethoxy carbonylcyanide phenylhydrazone], for which the “mitochondria membrane potential after addition (positive control of depolarization)” value with HT-22 cells was “large decrease”.
